Several values for one entry are separate records, joined by “and”; a condition that tells them apart may be missing. Identical values can stand only once.
Conditions: Liquid; for mass density: 101.33 kPa

CCC(O)(CC)CC [3-ethyl-3-pentanol]
speed of sound [m/s]
Conditions | 303.15 K | 313.15 K | 323.15 K | 333.15 K | 343.15 K | 353.15 K | 363.15 K | 373.15 K
100 kPa | 1269.7 | 1229.3 | 1189.8 | 1152.4 | 1113 | 1073.7 | 1034.6 | 994.7
10000 kPa | 1326.5 | 1289.3 | 1255.2 | 1217.3 | 1180.3 | 1144 | 1107.3 | 1072
20000 kPa | 1379.5 | 1346 | 1311.9 | 1277.4 | 1241.1 | 1207.5 | 1172.7 | 1139.6
30000 kPa | 1429.1 | 1393.8 | 1364.3 | 1330.3 | 1297.2 | 1264.4 | 1232.5 | 1200.6
40000 kPa | 1474.3 | 1440.8 | 1412.8 | 1379.9 | 1349.5 | 1317.4 | 1286.4 | 1256.3
50000 kPa | 1515.9 | 1484.5 | 1459 | 1426.5 | 1396 | 1366 | 1336.4 | 1307.4
60000 kPa | 1556.7 | 1526 | 1500.7 | 1470.6 | 1441.1 | 1411.1 | 1383.4 | 1354.2
70000 kPa | 1594.7 | 1564.6 | 1541 | 1511 | 1482.7 | 1454.8 | 1427.4 | 1400
80000 kPa | 1632.3 | 1602.2 | 1580.4 | 1550.1 | 1522 | 1494.6 | 1467.9 | 1440.9
90000 kPa | 1667.3 | 1638.3 | 1616.9 | 1587.4 | 1560.4 | 1533.6 | 1507.1 | 1481.4
100000 kPa | 1700.2 | 1672.4 | 1651.3 | 1622.8 | 1596.4 | 1570.4 | 1544.3 | 1519.4

CCC(C)(O)CC [3-methyl-3-pentanol]
Conditions | mass density
278.15 K | 840.5 kg/m3 and 841 kg/m3
279.15 K | 839.7 kg/m3 and 840.2 kg/m3
280.15 K | 838.9 kg/m3 and 839.4 kg/m3
281.15 K | 838.1 kg/m3 and 838.5 kg/m3
282.15 K | 837.2 kg/m3 and 837.7 kg/m3
283.15 K | 836.4 kg/m3 and 836.8 kg/m3
284.15 K | 835.6 kg/m3 and 836 kg/m3
285.15 K | 834.8 kg/m3 and 835.2 kg/m3
286.15 K | 833.9 kg/m3 and 834.4 kg/m3
287.15 K | 833.5 kg/m3 and 833.1 kg/m3
288.15 K | 832.7 kg/m3 and 832.3 kg/m3
289.15 K | 831.9 kg/m3 and 831.4 kg/m3
290.15 K | 831 kg/m3 and 830.6 kg/m3
291.15 K | 830.1 kg/m3 and 829.7 kg/m3
292.15 K | 829.3 kg/m3 and 828.9 kg/m3
293.15 K | 828.5 kg/m3 and 828 kg/m3
294.15 K | 827.6 kg/m3 and 827.1 kg/m3
295.15 K | 826.7 kg/m3 and 826.3 kg/m3
296.15 K | 825.9 kg/m3 and 825.4 kg/m3
297.15 K | 825 kg/m3 and 824.5 kg/m3
298.15 K | 824.1 kg/m3 and 823.6 kg/m3
299.15 K | 823.2 kg/m3 and 822.8 kg/m3
300.15 K | 822.3 kg/m3 and 821.9 kg/m3
301.15 K | 821.5 kg/m3 and 821 kg/m3
302.15 K | 820.6 kg/m3 and 820.1 kg/m3
303.15 K | 819.7 kg/m3 and 819.2 kg/m3
304.15 K | 818.8 kg/m3 and 818.3 kg/m3
305.15 K | 817.9 kg/m3 and 817.4 kg/m3
306.15 K | 816.9 kg/m3 and 816.5 kg/m3
307.15 K | 816 kg/m3 and 815.5 kg/m3
308.15 K | 815.1 kg/m3 and 814.6 kg/m3
309.15 K | 814.2 kg/m3 and 813.7 kg/m3
310.15 K | 813.3 kg/m3 and 812.8 kg/m3
311.15 K | 812.3 kg/m3 and 811.8 kg/m3
312.15 K | 811.4 kg/m3 and 810.9 kg/m3
313.15 K | 810.5 kg/m3 and 810 kg/m3
314.15 K | 809.5 kg/m3 and 809 kg/m3
315.15 K | 808.6 kg/m3 and 808.1 kg/m3
316.15 K | 807.6 kg/m3 and 807.1 kg/m3
317.15 K | 806.7 kg/m3 and 806.2 kg/m3
318.15 K | 805.7 kg/m3 and 805.2 kg/m3
319.15 K | 804.8 kg/m3 and 804.3 kg/m3
320.15 K | 803.8 kg/m3 and 803.3 kg/m3
321.15 K | 802.8 kg/m3 and 802.3 kg/m3
322.15 K | 801.9 kg/m3 and 801.3 kg/m3
323.15 K | 800.9 kg/m3 and 800.4 kg/m3
324.15 K | 799.9 kg/m3 and 799.4 kg/m3
325.15 K | 798.9 kg/m3 and 798.4 kg/m3
326.15 K | 798 kg/m3 and 797.4 kg/m3
327.15 K | 797 kg/m3 and 796.4 kg/m3
328.15 K | 796 kg/m3 and 795.4 kg/m3
329.15 K | 795 kg/m3 and 794.4 kg/m3
330.15 K | 794 kg/m3 and 793.4 kg/m3
331.15 K | 793 kg/m3 and 792.4 kg/m3
332.15 K | 792 kg/m3 and 791.4 kg/m3
333.15 K | 791 kg/m3 and 790.4 kg/m3
334.15 K | 789.9 kg/m3 and 789.4 kg/m3
335.15 K | 788.9 kg/m3 and 788.4 kg/m3
336.15 K | 787.9 kg/m3 and 787.4 kg/m3
337.15 K | 786.9 kg/m3 and 786.4 kg/m3
338.15 K | 785.9 kg/m3 and 785.3 kg/m3
339.15 K | 784.3 kg/m3
340.15 K | 783.3 kg/m3
341.15 K | 782.3 kg/m3
342.15 K | 781.2 kg/m3
343.15 K | 780.2 kg/m3
344.15 K | 779.1 kg/m3
345.15 K | 778.1 kg/m3
346.15 K | 777.1 kg/m3
347.15 K | 776 kg/m3
348.15 K | 775 kg/m3
349.15 K | 773.9 kg/m3
350.15 K | 772.9 kg/m3
351.15 K | 771.8 kg/m3
352.15 K | 770.7 kg/m3
353.15 K | 769.7 kg/m3
354.15 K | 768.6 kg/m3
355.15 K | 767.6 kg/m3
356.15 K | 766.5 kg/m3
357.15 K | 765.4 kg/m3
358.15 K | 764.4 kg/m3
359.15 K | 763.3 kg/m3
360.15 K | 762.2 kg/m3
361.15 K | 761.1 kg/m3
362.15 K | 760.1 kg/m3
363.15 K | 759 kg/m3
364.15 K | 757.9 kg/m3
365.15 K | 756.8 kg/m3
366.15 K | 755.7 kg/m3
367.15 K | 754.6 kg/m3
368.15 K | 753.5 kg/m3

speed of sound [m/s]
Conditions | 303.15 K | 313.15 K | 323.15 K | 333.15 K | 343.15 K | 353.15 K | 363.15 K | 373.15 K
100 kPa | 1230.7 | 1192.7 | 1154.4 | 1115.7 | 1077.3 | 1037.7 | 998.2 | 957.7
10000 kPa | 1290.1 | 1254.9 | 1219.2 | 1183.6 | 1148 | 1111.6 | 1076.2 | 1039.5
20000 kPa | 1344.9 | 1311.8 | 1278.7 | 1245 | 1211.1 | 1177.7 | 1144.6 | 1110.9
30000 kPa | 1396.1 | 1365 | 1332.4 | 1300.4 | 1268.5 | 1236.9 | 1205.4 | 1174
40000 kPa | 1443.3 | 1412.6 | 1382.1 | 1351.9 | 1321.7 | 1291.4 | 1261.4 | 1231.1
50000 kPa | 1487.1 | 1457.9 | 1428.9 | 1399.7 | 1370.5 | 1342.1 | 1312.6 | 1283.7
60000 kPa | 1529.7 | 1500.4 | 1472.8 | 1444.4 | 1416 | 1387.8 | 1359.8 | 1332
70000 kPa | 1568.8 | 1540.7 | 1513.6 | 1486.1 | 1458.4 | 1431.2 | 1404.8 | 1377.5
80000 kPa | 1606.2 | 1578.9 | 1552.8 | 1525.6 | 1499.4 | 1472.7 | 1446.9 | 1420.3
90000 kPa | 1641.7 | 1615 | 1589.9 | 1563.8 | 1537.9 | 1511.9 | 1486.5 | 1461.1
100000 kPa | 1675.9 | 1650 | 1624.9 | 1599.9 | 1574.6 | 1549.3 | 1524.4 | 1499.3

CCC(O)CC [3-pentanol]
speed of sound [m/s]
Conditions | 303.15 K | 313.15 K | 323.15 K | 333.15 K | 343.15 K | 353.15 K | 363.15 K | 373.15 K
100 kPa | 1234.7 | 1194.7 | 1155.2 | 1115.9 | 1076.8 | 1036.7 | 997.3 | 957.2
10000 kPa | 1294 | 1257 | 1219.2 | 1182.2 | 1146.9 | 1110.4 | 1075.3 | 1038.9
20000 kPa | 1348.2 | 1313 | 1277.9 | 1243.1 | 1209.7 | 1176.2 | 1143.2 | 1109.6
30000 kPa | 1397.7 | 1364.7 | 1331 | 1298.2 | 1266.6 | 1234.1 | 1203.5 | 1171.5
40000 kPa | 1443.6 | 1411.9 | 1380.2 | 1348.6 | 1318.2 | 1287.8 | 1258.2 | 1228.3
50000 kPa | 1486.9 | 1456 | 1425.8 | 1395.9 | 1366.4 | 1337.3 | 1308.3 | 1280.1
60000 kPa | 1526 | 1498.1 | 1468.5 | 1439.4 | 1411.1 | 1383.1 | 1355.1 | 1328.2
70000 kPa | 1564.7 | 1537.4 | 1508.9 | 1480.7 | 1453.1 | 1425.8 | 1399.6 | 1373.1
80000 kPa | 1600.5 | 1574.5 | 1547.2 | 1519.8 | 1492.9 | 1466.6 | 1440.8 | 1415
90000 kPa | 1636.4 | 1610.2 | 1583.6 | 1556.9 | 1530.7 | 1505 | 1479.7 | 1454.6
100000 kPa | 1668.2 | 1644.1 | 1618.6 | 1592.2 | 1566.6 | 1541.4 | 1516.9 | 1492.5

— the NIST ThermoML archive (doi:10.1016/j.jct.2005.10.002)
